Data on two compounds can be found in patent publication US20100048617A1, “COMPOUNDS” (SmithKline Beecham Corp., priority 2006, published 2010).

Where a name gives a salt, the structure may show the parent alone.

The target in this assay is T1, SCD (SCD-containing rat microsomes) (Rattus norvegicus, UniProt P07308).
T1 construct: SCD-containing rat microsomes (2 μg protein); from tissue
T1 sequence (P07308 1-358): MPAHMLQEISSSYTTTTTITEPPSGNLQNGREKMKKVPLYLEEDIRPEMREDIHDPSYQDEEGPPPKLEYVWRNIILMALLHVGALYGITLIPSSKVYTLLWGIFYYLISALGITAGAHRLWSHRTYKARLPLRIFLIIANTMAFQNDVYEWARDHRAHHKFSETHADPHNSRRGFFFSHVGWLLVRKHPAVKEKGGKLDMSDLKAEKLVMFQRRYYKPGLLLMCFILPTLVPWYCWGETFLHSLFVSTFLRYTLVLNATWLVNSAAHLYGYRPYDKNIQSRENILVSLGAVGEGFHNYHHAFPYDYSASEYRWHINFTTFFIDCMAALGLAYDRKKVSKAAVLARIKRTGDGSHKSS
Description: in vitro assay for SCD activity based on production of [3H]H2O from [9,10-3H] stearoyl Coenzyme A. The format is biochemical. The note with it: SCD-containing rat microsomes (2 μg protein), substrate 1 μM, 6 min incubation, 5 min preincubation with compound; read-out: average pIC50 value (converted). On the procedure:
The compounds of the present invention may be analysed in vitro for SCD activity using an assay based on the production of [^3H]H2O, which is released during the enzyme-catalyzed generation of the monounsaturated fatty acyl CoA product. The assay is performed in a 96-well filtration plates. The titrated substrate used in the assay is the [9,10-^3H] stearoyl Coenzyme A. After incubation for 6 minutes of SCD-containing rat microsomes (2 μg protein) and substrate (1 μM), the labelled fatty acid acyl-CoA species and microsomes are absorbed with charcoal and separated from [^3H]H2O by centrifugation. The formation of [^3H]H2O is used as a measure of SCD activity. Compounds at concentrations starting at 10 μM to 0.1 nM or vehicle (DMSO) are preincubated for 5 minutes with the microsomes before addition of the substrate. The concentration-responses are fitted with sigmoidal curves to obtain IC50 values.

With `COc1ccc(Cl)cc1Cn1nc(C(=O)Nc2ccc3c(c2)CCNC3)cc1C` [1-{[5-chloro-2-(methyloxy)phenyl]methyl}-5-methyl-N-(1,2,3,4-tetrahydro-6-isoquinolinyl)-1H-pyrazole-3-carboxamide hydrochloride], the IC50 was 3.16 to 10 µM.

Regarding `COc1ccc(OCC(C)C)c(Cn2nc(C(=O)Nc3ccc4c(c3)CCNC4)cc2C)c1` [5-methyl-1-({5-(methyloxy)-2-[(2-methylpropyl)oxy]phenyl}methyl)-N-(1,2,3,4-tetrahydro-6-isoquinolinyl)-1H-pyrazole-3-carboxamide hydrochloride], the IC50 was greater than 10 µM.
